Results: US20170172958A1, “Compounds for Use in Controlling Body Fat” (priority 2014, published 2017)

Legend:
[1] = Body composition (EchoMRI) and dissected fat depots of mice on a high fat diet; assay type: in vivo, Male C3H mice
Text: (§1) Male C3H mice were used. Two cohorts of twelve mice were weaned and fed on a commercial standard diet (SDS Rat and Mouse No.3 Breeding diet (RM3)), containing 3.36 g% fat, 22.45 g % protein and 71.21 g % carbohydrate, till maturity. At 11 weeks of age, the standard diet was replaced with a high fat diet (Research Diets Inc, USA, D12492, containing 35 g % fat, from lard and soybean oil). One cohort was provided with BSO (30 mmol/L) in their drinking water, concomitant with the start of high fat feeding, while the other cohort (control group) received no treatment. The mice were kept in accordance with UK Home Office welfare guidelines and project license restrictions under controlled light (12-h light and 12-h dark cycle; dark 7 p.m.-7 a.m.), temperature (21° C.±2° C.) and humidity (55%±10%) conditions. They had free access to water (10 ppm chlorine) and food throughout the experiment.
(§2) Phenotyping tests were performed according to the European Phenotyping Resource for Standardised Screens (EMPReSS) from EUMORPHIA standardized protocols, available at http://empress.har.mrc.ac.uk. Body mass was measured daily on scales calibrated to 0.01 g. Metabolic rate was measured using indirect calorimetry (Oxymax; Columbus Instruments) to determine oxygen consumption and carbon dioxide production. Body composition (% fat tissue and % lean tissue) was assessed utilizing an EchoMRl-100 quantitative magnetic resonance whole body composition analyzer (Echo Medical Systems, Houston, Tex.).

[2] = rats, Ogihara et al; cited from earlier work
liver cells = assay: Liver histology, fat vacuolation score; assay type: in vivo, Male C3H mice; conditions: high fat diet, vs control
Text: as §1

[3] = Plasma ALT, lipid components, glucose and glycerol; assay type: in vivo, Male C3H mice; conditions: vs control
Text: as §1

[4] = Plasma fatty acid concentrations (free and total); assay type: in vivo, Male C3H mice; conditions: vs control
Text: as §1

[5] = tested on: stearoyl-coenzymeA desaturase (SCD); assay: SCD activity indices (SCD16, SCD18) from plasma fatty acid ratios; assay type: in vivo, Male C3H mice; conditions: vs control
Text: Compounds of Formula I inhibit SCD activity, which can be measured using one or more activity indices. These can be based on measurements of different fatty acid components of the blood plasma or serum.
Activity indices are based on the amount of monounsaturated fatty acids relative to their respective […] precursors. The most commonly used SCD activity indices are derived from the ratio of palmitoleic to palmitic acids (“SCD16 index”), and the ratio of oleic to stearic acid (“SCD18 index”). These ratios are lowered with increased inhibition of SCD. SCD indices can either be calculated from plasma/serum free fatty acids, or from the total fatty acid pool, which also includes esterified fatty acids (e.g. triglycerides and phospholipids). Indices calculated from free fatty acid concentrations reflect SCD activity in adipose tissue, while those from total fatty acids reflect SCD activity in liver (Warensjo et al, Lipids Health Dis 2009, 8:37). Both in rodents and humans, SCD indices are associated with fat mass.
as §1

adipocytes = conditions: Vigilanza et al; cited from earlier work
[6] = Plasma and liver reduced and total glutathione, eight week BSO study; assay type: in vivo, Male C3H mice; conditions: eight weeks BSO, vs control
Text: as §1
(§3) For the results presented in FIGS. 23 and 24, the experiments were carried out using the same conditions as described above (i.e. same mouse strain, mouse age, diet, and experimental design) except that the mice were treated for eight weeks with BSO, and the plasma for insulin, glucose, and leptin analysis was drawn after a 6-hour fast, after six weeks of BSO treatment.

[7] = Fasting plasma glucose, insulin and HOMA-IR, eight week BSO study; assay type: in vivo, Male C3H mice; conditions: after six weeks of BSO treatment, vs control
Text: as §1
Thus, BSO-treated mice had lower glucose plasma levels, and lower insulin concentrations compared to the control. […] The HOMA IR index is a calculation of insulin resistance based on fasting glucose and insulin plasma levels, the calculation being known to those skilled in the art. Leptin plasma levels are also shown.
as §3

[8] = Metabolic rate by indirect calorimetry (Oxymax); assay type: in vivo, Male C3H mice; conditions: dark and light phases, per unit weight, vs control, P<0.001
Text: (§4) Male C3H mice were used. Two cohorts of twelve mice were weaned and fed on a commercial standard diet (SDS Rat and Mouse No.3 Breeding diet (RM3)), containing 3.36 g% fat, 22.45 g % protein and 71.21 g % carbohydrate, till maturity. At 11 weeks of age, the standard diet was replaced with a high fat diet (Research Diets Inc, USA, D12492, containing 35 g % fat, from lard and soybean oil). One cohort was provided with BSO (30 mmol/L) in their drinking water, concomitant with the start of high fat feeding, while the other cohort (control group) received no treatment. […]
as §2

[9] = Plasma amino acids and sulphur compounds (tCys, tHcy, glutathione, taurine); assay type: in vivo, Male C3H mice
Text: Further, SCD activity increases with high tCys concentration in both rodents and humans. tCys refers to all natural forms of circulating cysteine, such as cysteine (thiol form), cystine (disulphide form), cysteine-mixed disulphides with other thiol compounds, and protein-bound cysteine not in peptide linkage. tCys in the plasma or serum can be measured using techniques described, for example, in WO2010/010383.
as §1

[10] = Findeisen et al, cited from earlier work
[11] = Body mass of mice on a high fat diet, BSO in drinking water, four weeks; assay type: in vivo, Male C3H mice; conditions: BSO 30 mmol/L in drinking water, over four week treatment, control group showed significant weight gain
Text: as §4, §2

[12] = dissected mice, vs control, P<0.001

CCCCS(=N)(=O)CCC(N)C(=O)O (centres unmarked) [BSO, buthionine sulfoximine]
amount of brown fat mass ([1]; dissected mice, vs control): similar | abdominal fat as a percentage of total body weight [1, 12]: significantly lower | quantity of abdominal fat in grams [1, 12]: significantly lower | lean mass ([1]; echo MRI, difference between BSO and control cohorts): only a relatively small difference | quantity of body fat ([1]; echo MRI, vs control mice, high fat diet): substantially lower | brown fat as a percentage of total fat mass ([1]; vs control, P<0.05): higher | abdominal fat mass as a percentage of total fat mass ([1]; vs control, P=0.055): trend towards decrease | insulin resistance [2]: induces insulin resistance | liver fat vacuolation (liver cells): absent | plasma glucose ([3]; four week study): decreased | plasma glycerol [3]: decreased | plasma high density lipoprotein (HDL) [3]: lower | plasma low density lipoprotein (LDL) [3]: lower | plasma non-esterified fatty acids [3]: lower | plasma total cholesterol [3]: lower | plasma triglycerides ([3]; lower, particularly so): lower | plasma ALT concentrations ([3]; marker of NAFLD): substantially lower | fatty acid plasma concentrations, a number of C14 to C22 fatty acids ([4]; free and total fatty acids): lower | free palmitic acid plasma concentration [4]: lower | free palmitoleic acid plasma concentration [4]: lower | oleic acid to stearic acid ratio (SCD18 index) ([5]; free fatty acids in plasma): lower | ratio of palmitoleic acid to palmitic acid (SCD16 index) ([5]; free fatty acids in plasma): lower | unsaturated/saturated fatty acid ratios (SCD16 and SCD18 activity indices) ([5]; total fatty acid concentrations in plasma): lower | adipogenesis (adipocytes): increased adipogenesis | intracellular glutathione (adipocytes): decreases | triglycerides in adipocytes (adipocytes): triglyceride accumulation | liver rGSH levels [6]: similar | liver rGSH/tGSH ratio [6]: higher | liver tGSH levels [6]: lower | plasma rGSH/tGSH ratio [6]: similar | plasma reduced glutathione (rGSH) [6]: lower | plasma total glutathione (tGSH) [6]: lower | glucose plasma levels ([7]; 6-hour fast): lower | insulin plasma concentrations ([7]; 6-hour fast): lower | HOMA insulin-resistance (IR) index ([7]; from fasting glucose and insulin): significantly lower | carbon dioxide production [8]: greater | oxygen consumption [8]: significantly greater | concentration of amino acids in the plasma ([9]; difference between BSO and control cohorts): little difference | plasma glutathione concentrations ([9]; four week study, vs control): decrease | total homocysteine (tHcy) plasma concentrations ([9]; vs control): larger concentrations | plasma taurine concentrations ([9]; vs control cohort): substantially lower | plasma tCys concentrations ([9]; vs controls, all measured forms of cysteine): significantly and substantially lower | insulin sensitivity [10]: preserve insulin sensitivity | diet-induced obesity ([10]; mice): reduce | energy expenditure ([10]; mice): increase | locomotor activity ([10]; mice): increase | body weight [11]: reduction in body weight
